This passage reports IC50, melting point and inhibition results from patent US8263606B2 (Xenon Pharmaceuticals Inc., priority 2008, dated 2012).

For one data set, the system named is sodium channel. In words: Guanidine influx assay (14C-guanidine radiotracer flux, in vitro). In kind it is cell-based, human or rat. As to conditions: guanidine influx assay using a known cell line that expresses a sodium channel; activity level class. In outline: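 Cells (human/rat Nav, endogenous or recombinant), ~100,000/well, 20-24 h 37 °C/5% CO2. Wash LNHBSS (150 mM choline Cl, HEPES, glucose). Add cpd + aconitine/14C-guanidine mix, RT. Wash, dry, scintillation count. IC50: 4-PL fit; selectivity as IC50 ratio vs reference channel, e.g. Nav1.5.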

The next data set addresses CYP3A4 (Homo sapiens, UniProt P08684). The data set can be described thus: Cytochrome P450 (CYP450) Inhibition Assay, CYP3A4 (Vivid fluorescence, BOMCC substrate). As to conditions: human, P450 Baculosomes (recombinant CYP3A4), probe BOMCC (Vivid substrate).

Chain of CYP3A4 (P08684 whole entry): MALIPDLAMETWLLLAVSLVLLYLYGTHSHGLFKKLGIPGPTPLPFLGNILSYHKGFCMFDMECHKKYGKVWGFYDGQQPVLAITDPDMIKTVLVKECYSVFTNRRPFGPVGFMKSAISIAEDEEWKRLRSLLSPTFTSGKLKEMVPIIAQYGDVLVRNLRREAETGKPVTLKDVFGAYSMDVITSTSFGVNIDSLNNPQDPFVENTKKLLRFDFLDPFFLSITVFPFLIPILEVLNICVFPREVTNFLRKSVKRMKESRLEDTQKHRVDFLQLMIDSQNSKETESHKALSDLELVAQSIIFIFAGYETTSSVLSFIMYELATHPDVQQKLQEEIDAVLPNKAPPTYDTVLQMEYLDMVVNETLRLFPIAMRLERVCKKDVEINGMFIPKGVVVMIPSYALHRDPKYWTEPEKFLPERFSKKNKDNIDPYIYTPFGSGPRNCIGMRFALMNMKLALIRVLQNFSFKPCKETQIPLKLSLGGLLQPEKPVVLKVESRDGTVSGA

Molecule `O=C1Nc2ccccc2C12COc1cc3c(cc12)OCCCO3` (stereo not drawn) [Example 3.11, 3,4-dihydro-2H-spiro[furo[2,3-h][1,5]benzodioxepine-9,3′-indol]-2′(1′H)-one] had a melting point of 235 to 236 °C. For the same molecule, the IC50 with sodium channel lay within 1000 to 10000 nM. On CYP3A4, the inhibition at 10 µM is under 50%.
For `Cc1nc2cc3c(cc2o1)C1(CO3)C(=O)Nc2ccccc21` (stereo not drawn) [Example 3.12, 2-methylspiro[furo[2,3-f][1,3]benzoxazole-7,3′-indol]-2′(1′H)-one], in that order: 242 to 244 °C, at least 10000 nM and under 50%.
For `Cn1c(=O)oc2cc3c(cc21)OCC31C(=O)Nc2ccccc21` (stereo not drawn) [Example 3.13, 3-methylspiro[furo[2,3-f][1,3]benzoxazole-7,3′-indole]-2,2′(1′H,3H)-dione], in that order: over 250 °C, 1000 to 10000 nM and under 50%.
For `Cn1c(=O)oc2cc3c(cc21)C1(CO3)C(=O)Nc2ccccc21` (stereo not drawn) [Example 3.14, 1-methylspiro[furo[3,2-f][1,3]benzoxazole-7,3′-indole]-2,2′(1′H,1′H)-dione], in that order: over 250 °C, 1000 to 10000 nM and under 50%.
`O=C1Nc2c(Cl)cccc2C12COc1cc3c(cc12)CCO3` (stereo not drawn) [Example 3.15, 7′-chloro-5,6-dihydrospiro[benzo[1,2-b:5,4-b′]difuran-3,3′-indol]-2′(1′H)-one] yielded a melting point of over 250 °C. For the same molecule, in the data set with sodium channel, the IC50 fell in the range of 100 to 1000 nM. Further, the inhibition at 10 µM at CYP3A4 was under 50%.
For `O=C1Nc2c(F)cccc2C12COc1cc3c(cc12)CCO3` (stereo not drawn) [Example 3.16, 7′-fluoro-5,6-dihydrospiro[benzo[1,2-b:5,4-b′]difuran-3,3′-indol]-2′(1′H)-one], the melting point was over 250 °C. The IC50 with sodium channel was in the range of 100 to 1000 nM. Moreover, the inhibition at 10 µM on CYP3A4 was under 50%.
The molecule `Cc1ccc(F)c2c1NC(=O)C21COc2cc3c(cc21)CCO3` (stereo not drawn) [Example 3.17, 4′-fluoro-7′-methyl-5,6-dihydrospiro[benzo[1,2-b:5,4-b′]difuran-3,3′-indol]-2′(1′H)-one] showed a melting point of over 250 °C. In addition, the half-inhibitory concentration (IC50) with sodium channel was 100 to 1000 nM. Moreover, the inhibition at 10 µM on CYP3A4 was over 50%.
In the same order, the values of `O=C1Nc2ccccc2C12COc1cc3c(cc12)CCCO3` (stereo not drawn) [Example 3.21, 6,7-dihydro-5H-spiro[furo[3,2-g]chromene-3,3′-indol]-2′(1′H)-one] are 216 to 220 °C, 100 to 1000 nM and under 50%.
In the same order, the values of `CN1C(=O)COc2cc3c(cc21)C1(CO3)C(=O)Nc2ccccc21` (stereo not drawn) [Example 3.22, 1-methyl-1H-spiro[furo[3,2-g][1,4]benzoxazine-8,3′-indole]-2,2′(1′H,3H)-dione] are over 250 °C, 1000 to 10000 nM and under 50%.
In the same order, the values of `CN1C(=O)COc2cc3c(cc21)OCC31C(=O)Nc2ccccc21` (stereo not drawn) [Example 3.23, 4-methyl-4,7-dihydrospiro[benzofuro[5,6-b][1,4]oxazine-8,3′-indoline]-2′,3(2H)-dione] are over 250 °C, 1000 to 10000 nM and under 50%.
Turning to `COc1cc2c(cc1C)[C@@]1(CO2)C(=O)Nc2ccccc21` [Example 3.25, (3S)-6-methoxy-5-methylspiro[1-benzofuran-3,3′-indol]-2′(1′H)-one], the melting point was over 250 °C. Moreover, the IC50 with sodium channel was 1000 to 10000 nM. On CYP3A4, the inhibition at 10 µM is under 50%.
`COc1cc2c(cc1C)[C@]1(CO2)C(=O)Nc2ccccc21` [Example 3.26, (3R)-6-methoxy-5-methylspiro[1-benzofuran-3,3′-indol]-2′(1′H)-one] gave a melting point of over 250 °C. For the same molecule, the IC50 in the data set on sodium channel was 1000 to 10000 nM. Further, the inhibition at 10 µM at CYP3A4 is over 50%.
For `O=C1Nc2cc3c(cc2C12COc1cc4c(cc12)CCO4)OCCO3` (stereo not drawn) [Example 3.28, 2′,3′,5,6-tetrahydrospiro[benzo[1,2-b:5,4-b′]difuran-3,8′-[1,4]dioxino[2,3-f]indol]-7′(6′H)-one], in that order: over 250 °C, 1000 to 10000 nM and over 50%.
For `N#Cc1cc2c(cc1F)OCC21C(=O)Nc2ccccc21` (stereo not drawn) [Example 3.30, 6-fluoro-2′-oxo-1′,2′-dihydrospiro[1-benzofuran-3,3′-indole]-5-carbonitrile], in that order: 222 to 224 °C, 1000 to 10000 nM and under 50%.
For `O=C1Nc2cccc(F)c2C12COc1cc3c(cc12)OCCO3` (stereo not drawn) [Example 3.33, 4′-fluoro-2,3-dihydrospiro[furo[2,3-g][1,4]benzodioxine-8,3′-indol]-2′(1′H)-one], in that order: 282 to 285 °C, 1 to 100 nM and under 50%.
Take `O=C1Nc2ccccc2C12COc1c(Cl)cc3c(c12)OCCO3` (stereo not drawn) [Example 3.42, 6-chloro-2,3-dihydrospiro[furo[3,2-f][1,4]benzodioxine-9,3′-indol]-2′(1′H)-one]: the melting point lay within 255 to 257 °C. The IC50 in the data set on sodium channel was 1000 to 10000 nM. The inhibition at 10 µM at CYP3A4 is under 50%.
For `O=C1Nc2ccccc2C12COc1cc(F)c(F)cc12` (stereo not drawn) [Example 3.44, 5,6-difluorospiro[1-benzofuran-3,3′-indol]-2′(1′H)-one], in that order: over 200 °C, 1000 to 10000 nM and over 50%.
For `O=C1Nc2ccccc2C12COc1cc3c(cc12)CCCC3` (stereo not drawn) [Example 3.45, 5′,6′,7′,8′-tetrahydrospiro[indole-3,3′-naphtho[2,3-b]furan]-2(1′H)-one], in that order: over 230 °C, 1000 to 10000 nM and over 50%.
With `COCCOc1ccc2c(c1)OCC21C(=O)Nc2ccccc21` (stereo not drawn) [Example 3.46, 6-(2-methoxyethoxy)spiro[1-benzofuran-3,3′-indol]-2′(1′H)-one], the melting point lay in the range of 172 to 174 °C. The IC50 in the data set with sodium channel lay in the range of 1000 to 10000 nM. Also, on CYP3A4, the inhibition at 10 µM was under 50%.
In the same order, the values of `O=C1Nc2ccccc2C12COc1c2ccc2c1OCCO2` (stereo not drawn) [Example 3.48, 2,3-dihydrospiro[furo[2,3-f][1,4]benzodioxine-7,3′-indol]-2′(1′H)-one] are over 250 °C, 1000 to 10000 nM and under 50%.
In the same order, the values of `O=C1Nc2ccccc2C12COc1cc3nccnc3cc12` (stereo not drawn) [Example 3.51, spiro[furo[2,3-g]quinoxaline-8,3′-indol]-2′(1′H)-one] are 206 to 207 °C, 1000 to 10000 nM and under 50%.
In the same order, the values of `N#Cc1ccc(CN2C(=O)C3(COc4cc5c(cc43)CCO5)c3ccccc32)cc1` (stereo not drawn) [Example 4.23, 4-((2′-oxo-5,6-dihydro-2H-spiro[benzofuro[6,5-b]furan-3,3′-indoline]-1′-yl)methyl)benzonitrile] are 69 to 71 °C, 1 to 100 nM and under 50%.

A word on the IC50: it is the concentration that inhibits the measured activity by half. What is called melting point is the temperature of the solid-liquid transition. As usually defined, the inhibition is the change of the read-out against control, counted positive when it falls.
